According to ChEMBL document CHEMBL1130696, “Conformationally constrained analogues of diacylglycerol (DAG). 15. The indispensable role of the sn-1 and sn-2 carbonyls in the binding of DAG-lactones to protein kinase C (PK-C)” (Bioorg Med Chem Lett, 1998):

Target: Protein kinase C alpha type (Homo sapiens, UniProt P17252)
Test: Displacement of [20-3H]-phorbol 12,13-dibutyrate (PDBU) from PKCalpha (C1b domain)

Ki [µM] | SMILES
7.46 | CCCCCCCCCCCCC/C=C1/CC(CO)(COCC)OC1=O (stereo not drawn)
4.98 | CCCCCCCCCCCCC/C=C1\CC(CO)(COCC)OC1=O (stereo not drawn)
7.58 | CCCCCCCCCCCCC/C=C1/COC(CO)(COC(C)=O)C1 (stereo not drawn)
